Laboratory results published in paper PMC8943889, “Synthetic studies with the brevicidine and laterocidine lipopeptide antibiotics including analogues with enhanced properties and in vivo efficacy” (Chemical Science, 2022).
Values after ≈ are worked out from the molar mass of the structure shown. Where two headings read alike, the source gives them in different places. Positions of bridges follow the written chain, without caps; N, C: chain ends. Non-standard residues stand in square brackets, D forms with d. Residues, ends and D or L forms follow the SMILES beside them. *: point of attachment. Octanoyl(7-Me) = CC(C)CCCCCC(=O)*; dOrn = NCCC[C@@H](N)C(=O)O; Orn = NCCC[C@H](N)C(=O)O; Dap = NC[C@H](N)C(=O)O

Key:
P. aeruginosa ATCC 27853 = format: cell-based; conditions: ATCC 27853, 16 h
Outline: (§1)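 CLSI broth microdilution, MHB, polypropylene plates; inoculum 2 × 10^5 CFU mL−1 (final); 16 h, 37°C, 220 rpm; visual endpoint; n = 3 technical.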

P. aeruginosa PAO1 = format: cell-based; conditions: PAO1, 16 h
Outline: as §1

P. aeruginosa NRZ-03961 = format: cell-based; conditions: NRZ-03961, 16 h
Outline: as §1

K. pneumoniae 2048 = format: cell-based; conditions: 2048, 16 h
Outline: as §1

E. coli ATCC 25922 [1] = format: cell-based
Outline: as §1

K. pneumoniae JS-123 = format: cell-based; conditions: JS-123, 16 h
Outline: as §1

P. aeruginosa M-120 = format: cell-based; conditions: M-120, 16 h
Outline: as §1

K. pneumoniae ATCC 13883 = format: cell-based; conditions: ATCC 13883, 16 h
Outline: as §1

A. baumannii 2018-006 = format: cell-based; conditions: 2018-006, 16 h
Outline: as §1

A. baumannii ATCC 17978 = format: cell-based; conditions: ATCC 17978, 16 h
Outline: as §1

K. pneumoniae ATCC 11228 = format: cell-based; conditions: ATCC 11228, 16 h
Outline: as §1

A. baumannii ATCC 17961 = format: cell-based; conditions: ATCC 17961, 16 h
Outline: as §1

S. aureus USA300 = format: cell-based; conditions: USA300, 16 h
Outline: as §1

E. coli ATCC 25922 [2] = assay: Neutropenic mouse thigh infection efficacy study; format: in vivo, mice (ICR); conditions: neutropenic mice
Description: (§2) In vivo tolerability and efficacy studies
(§3) Ethical Issues. Animal experiments were performed under UK Home Office Licences P89653310 (tolerability and PK) and PA67E0BAA (thigh efficacy), with local ethical committee clearance.
(§4) Animal Strain. Mice used in these studies were supplied by Charles River (Margate UK) and were specific pathogen free. The strain of mice used was ICR (also known as CD1 Mice) which is a well characterized outbred murine strain. Mice (male) were 11-15 g on receipt and were allowed to acclimatise for at least 7 days.
(§5) Animal Housing. Mice were housed in sterilised individual ventilated cages exposing the mice at all times to HEPA filtered sterile air. Mice had free access to food and water and had aspen chip bedding (changed at least once weekly). The room temperature was 22°C +/ - 1°C, with a relative humidity of 60% and maximum background noise of 56 dB. Mice were exposed to 12 h light/dark […]
Test compounds. Compound 6 was dissolved in water for injection in which it formed a clear […]
colourless solution. […]
Compound 6 was administered via subcutaneous administration route at 3 8-h […]
The mice used in the tolerability study were naïve and were not immunosuppressed or infected.
Efficacy study. The in vivo efficacy of compound 6 was assessed in a mouse thigh abscess model where both thighs of each mouse were infected with E. coli ATCC 25922
Immunosuppression. […]
Endpoints. One h and 20.5 (planned 25) h post-infection, the clinical condition of all animals was assessed prior to humane euthanasia using pentobarbitone overdose, and the thighs were removed and weighed. Thigh samples were homogenized in 3mL ice cold sterile PBS; the homogenates were quantitatively cultured onto CLED agar and incubated at 37°C for 18 - 24 h before colonies were […]
Data analysis. The data from the culture burdens were analysed using appropriate non-parametric statistical models (Kruskal-Wallis using Conover-Inman to make all pairwise comparisons between groups) with StatsDirect software v. […]

[3] = In vivo tolerability study; conditions: naïve ICR mice, subcutaneous, 40 mg kg^−1 q8h over 24 h (total daily dose 120 mg kg^−1)
Description: as §2, §3, §4, §5
Test compounds. Compound 6 was dissolved in water for injection in which it formed a clear colourless solution. Polymyxin B was dissolved in saline for injection to produce a clear colourless […]
Tolerability study. The tolerability of compound 6 was assessed in the same mouse strain used for the efficacy studies. Compound 6 was administered via subcutaneous administration route at 3 8-h […]
The mice used in the tolerability study were naïve and were not immunosuppressed or infected. […]

Compound: CC[C@H](C)[C@@H]1NC(=O)[C@@H](NC(=O)[C@H](Cc2c[nH]c3ccccc23)NC(=O)[C@@H](CCCN)NC(=O)CNC(=O)[C@H](CCCN)NC(=O)[C@@H](CCCN)NC(=O)[C@@H](Cc2c[nH]c3ccccc23)NC(=O)[C@@H](Cc2ccc(O)cc2)NC(=O)[C@@H](CO)NC(=O)CCCCCC(C)C)CNC(=O)CNC(=O)CNC(=O)[C@H](CC(N)=O)NC1=O [Dap9-Lat (6), Dap9-laterocidamide] ({Octanoyl(7-Me)}-[dS][dY][dW][dOrn][Orn]G[dOrn]W[Dap]INGG; lactam 9-C)
- MIC (P. aeruginosa ATCC 27853): 0.5 to 1 µg/mL
- MIC (P. aeruginosa PAO1): 1 to 2 µg/mL
- MIC (P. aeruginosa NRZ-03961): 2 µg/mL (≈ 1.26 µM)
- MIC (K. pneumoniae 2048): 2 µg/mL (≈ 1.26 µM)
- MIC (E. coli ATCC 25922 [1]; ATCC 25922, 16 h): 1 µg/mL (≈ 0.629 µM)
- MIC (E. coli ATCC 25922 [1]; Ec ATCC 25922, broth microdilution (CLSI), MHB, 2 × 10^5 CFU/mL, 16 h 37 °C, visual read-out, three technical replicates): 1.0 µg/mL (≈ 0.629 µM)
- MIC (K. pneumoniae JS-123): 0.5 µg/mL (≈ 0.314 µM)
- MIC (P. aeruginosa M-120): 1 to 2 µg/mL
- MIC (K. pneumoniae ATCC 13883): 2 µg/mL (≈ 1.26 µM)
- MIC (A. baumannii 2018-006): 4 µg/mL (≈ 2.52 µM)
- MIC (A. baumannii ATCC 17978): 4 µg/mL (≈ 2.52 µM)
- MIC (K. pneumoniae ATCC 11228): 2 µg/mL (≈ 1.26 µM)
- MIC (A. baumannii ATCC 17961): 4 µg/mL (≈ 2.52 µM)
- MIC (S. aureus USA300): >64 µg/mL
- dose response of thigh burden (E. coli ATCC 25922 [2]; E. coli ATCC 25922 thigh infection, 10, 20 and 40 mg kg^−1 SC q8h): clear dose response
- reduction in bacterial load relative to the untreated group (E. coli ATCC 25922 [2]; thigh infection with E. coli ATCC 25922, 40 mg kg^−1 SC q8h starting 1 h post-infection, thigh burden cfu g^−1 at 20.5 h): ~5 log
- tolerability [3]: well tolerated
- tolerability ([3]; listed as 6): good tolerability
